# Experimental data reported in US9056835B2, “LPA2 receptor-specific benzoic acid derivatives” (University of Tennessee Research Foundation, priority 2012, dated 2015).
# Key:
# GPR87 = GPR87 (Homo sapiens, UniProt Q9BY21); test: LPA receptor-mediated Ca2+ mobilization assay, GPR87; type: cell-based; conditions: for EC50: agonist, Ca2+ mobilization; for inhibition of GPR87 Ca2+ response: 10 μM, ~EC75 LPA 18:1; for GPR87 Imax (%): inhibition by 10 μM compound of ~EC75 LPA 18:1 Ca2+ response
# Method: Similarity searches were performed separately using each fingerprint to quantitate similarity. Hits meeting the 80% similarity threshold from each search were ranked based on the Tanimoto coefficient measure of similarity to a target molecule NSC12404, and the top 75 unique hits from each fingerprint search were selected for further analysis. The 225 compounds selected for further analysis were clustered based on Tanimoto coefficients calculated using Molecular ACCess System-key fingerprints (MACCS keys) and evaluated using the diversity subset function implemented in MOE. This selected a diverse subset of 27 compounds for biological evaluation by choosing the middle compounds in each cluster. These 27 compounds were tested in Ca^2+ mobilization assays at a concentration of 10 μM using stable cell lines individually expressing LPA2 and also in vector-transfected control cells. Hits activating LPA2 were further tested using cells expressing the other established and putative LPA GPCRs. Experimental testing of the selected compounds identified the three new selective LPA2 agonists: GRI977143, H2L5547924, and H2L5828102. […] They arbitrarily selected GRI977143 for further characterization in cell-based assays.
# J Biol Chem (2009) 284(25): 17304-17319). […] The cells were loaded with Fura-2-acetoxymethyl esther (Fura-2/AM) in Krebs buffer containing 0.01% pluronic acid for 30 min and rinsed with Krebs buffer before measuring Ca^2+ mobilization. The ratio of peak emissions at 510 nm after 2 min of ligand addition was determined for excitation wavelengths of 340 nm/380 nm. All samples were run in quadruplicate. […] The half maximally effective concentration (EC50), and inhibitory constant (Ki) values were calculated by fitting a sigmoid function to dose-response data points using KaleidaGraph software (version 4.1, Synergy Software; […]).
# Mouse embryonic fibroblast (MEF) cells were isolated from E13.5 LPA1&2 double knockout (DKO) embryos. MEFs were transduced with empty vector or LPA2-containing lentiviruses and selected with 1.5 μg/ml puromycin. Cells were maintained in Dulbecco's modified Eagle medium (DMEM) supplemented with 10% (V/V) fetal bovine serum (FBS), 2 mM L-glutamine, 100 U/mL penicillin, and 100 μg/mL streptomycin. Serum-free medium contained 0.1% (W/V) BSA in DMEM. The rat intestinal epithelial cell line 6 (IEC-6) was obtained from the American Type Culture Collection (Rockville, Md.) at passage 13; passages 16-21 were used in all experiments. IEC-6 cells were maintained in a humidified 37° C. incubator in an atmosphere of 90% air and 10% CO2. Growth medium consisted of DMEM supplemented with 5% heat inactivated FBS, 10 μg/mL insulin, and 50 μg/mL gentamycin. The composition of the serum-starvation medium was the same as that of the full growth medium except that it contained no FBS. The McArdle rat hepatoma cell line (RH7777) stably expressing LPA2 receptors was a gift from Dr. Fumikazu Okajima (Gunma University, Maebashi, Japan). RH7777 cells stably expressing LPA1 or LPA3 receptors were generated in-house and had been characterized earlier. Wild type and LPA receptor (LPAR) stably transfected RH7777 cells were grown in DMEM supplemented with 10% FBS and 2 mM L-glutamine in the presence of 250 μg/ml G418. Chinese hamster ovary (CHO) cells stably expressing either vector or LPA4 receptor were a kind gift from Dr. Takao Shimizu (Tokyo University; Tokyo, Japan). Cells were cultured in Ham's F12 medium containing 10% FBS, 2 mM L-glutamine, and 350 μg/ml G418. Rat neuroblastoma cells (B103) were transduced with the lentivirus harboring wild type of FLAG-LPA5 and selected with puromycin to establish the stable cell lines. The stable cells were maintained in DMEM supplemented with 10% FBS and 0.4 μg/ml puromycin. GPR87- and P2Y10-expressing CHO cells and vector-transfected control cells were a gift from Dr. Norihisha Fujita (Ritsumeikan University; Shiga, Japan). […]
# [1] = test system: vector- and LPA2-transduced MEF cells; test: Adriamycin-induced apoptosis, DNA fragmentation ELISA; type: cell-based, mouse; conditions: GRI977143 10 μM
# Method: Experiments were performed on vector- and LPA2-transduced MEF cells. To measure caspase 3, 7, 8, or 9 activity and DNA fragmentation, cells were plated in 48-well plates (2×10^4 cells/well). To detect PARP-1 cleavage and Bax translocation, 1.5×10^6 cells were plated in 10-cm dishes and cultured overnight in full growth medium. The next morning, the growth medium was replaced by serum-starvation medium and cells were pretreated for 1 h with LPA (1-10 μM), OTP (1-10 μM), GRI977143 (1-10 μM), or vehicle. Caspase activity, DNA fragmentation, PARP-1 cleavage, and Bax translocation were measured 5 h after incubation with 1.7 μM Adriamycin or 24 h after serum withdrawal.
# (§1) Apoptotically-challenged cells were washed twice with PBS, and a quantitative DNA fragmentation assay was carried out using a Cell Death Detection ELISA PLUS kit (Roche Diagnostics, Penzberg, Germany) and normalized to protein concentration using the BCA Protein Assay Kit (Thermo Fisher Scientific, Inc.; Rockford, Ill.) as described previously (Valentine et al., 2010). Aliquots of nuclei-free cell lysate were placed in streptavidin-coated wells and incubated with anti-histone-biotin antibody and anti-DNA peroxidase-conjugated antibody for 2 h at room temperature. After the incubation, the sample was removed, and the wells were washed and incubated with 100 μl 2,2′-azino-di[3-ethylbenzthiazolin-sulfonate substrate at room temperature before the absorbance was read at 405 nm. Results were expressed as absorbance at 405 nm/min/mg protein as detailed in our previous report (Ray et al., Mdm2 inhibition induces apoptosis in p53 deficient human colon cancer cells by activating p73- and E2F1-mediated expression of PUMA and Siva-1. Apoptosis (2011) 16(1): 35-44).
# IEC-6 cells = test: TNF-α/CHX-induced apoptosis, DNA fragmentation; type: cell-based, rat; conditions: OTP 10 μM, LPA 1 μM, GRI977143 10 μM
# Method: Confluent serum-starved IEC-6 cells were treated with or without TNF-α (10 ng/ml)/cycloheximide (CHX) (20 μg/ml) in the presence of OTP (10 μM), GRI977143 (10 μM), or LPA (1 μM) for 3 h. Cells were washed twice with PBS and the quantitative DNA fragmentation assay was carried out as described previously (Valentine et al., (S)—FTY720-vinylphosphonate, an analogue of the immunosuppressive agent FTY720, is a pan-antagonist of sphingosine 1-phosphate GPCR signaling and inhibits autotaxin activity. Cell Signal (2010) 22(10): 1543-1553).
# as §1
# [2] = LPA2-transduced MEF, LPA and OTP 3 μM
# Sequence of GPR87 (Q9BY21 whole entry): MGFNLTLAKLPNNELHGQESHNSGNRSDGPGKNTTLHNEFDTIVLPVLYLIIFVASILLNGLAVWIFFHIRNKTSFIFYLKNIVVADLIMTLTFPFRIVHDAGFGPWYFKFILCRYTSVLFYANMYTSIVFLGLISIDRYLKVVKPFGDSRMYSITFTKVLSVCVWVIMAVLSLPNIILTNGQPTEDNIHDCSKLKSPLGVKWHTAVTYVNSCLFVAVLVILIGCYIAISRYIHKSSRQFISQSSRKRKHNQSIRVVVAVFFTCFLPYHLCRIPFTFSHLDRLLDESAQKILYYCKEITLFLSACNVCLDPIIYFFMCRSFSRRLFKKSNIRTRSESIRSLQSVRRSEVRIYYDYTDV
Compound,EC50 (GPR87),"reduction of DNA fragmentation [1, 2]",DNA fragmentation induced by TNF-α/CHX (IEC-6 cells),inhibition of GPR87 Ca2+ response (GPR87),GPR87 Imax (%) (GPR87),reduction of DNA fragmentation ([1]; vector-transduced MEF)
octadecenyl thiophosphate [OTP],3000 nM,32±1%,completely blocked,–,–,–
O=C(O)c1cc(Cl)c(Cl)cc1C(=O)Nc1ccc2c(c1)C(=O)c1ccccc1-2 [Compound H2L5547924],–,–,–,partially inhibited,31%,–
O=C(O)c1ccccc1C(=O)Nc1ccc2c(c1)C(=O)c1ccccc1C2=O [Compound H2L5828102],–,–,–,partially inhibited,21%,–
O=C(O)c1ccccc1C(=O)Nc1ccc2c(c1)C(=O)c1ccccc1-2 [NSC12404],> 10000 nM,–,–,–,–,–
"CCCCCCCC/C=C\CCCCCCCC(=O)OC[C@@H](O)COP(=O)(O)O [LPA 18:1, Lysophosphatidic acid (18:1)]",49 nM,35±4%,significantly reduced,–,–,–
O=C(O)c1ccccc1SCCCN1C(=O)c2cccc3cccc(c23)C1=O [GRI977143],> 10000 nM,41±2%,significantly reduced,–,–,7±1%
